Patent publication US5597806A, “Antifungal agents” (Merck & Co., Inc., priority 1995, dated 1997)
In brackets after ≈: the same amount, converted by molar mass. Where two headings read alike, the source gives them in different places.

Columns and labels:
Experiment in all cases: broth microdilution assay
[1] = tested on: Aspergillus fumigatus (MF4839); format: cell-based; conditions: for MIC: complete clearing
Description: (§1) In the microbroth dilution assay, the selected microorganisms were grown by streaking a yeast culture on Sabouraud Dextrose agar (SDA) and incubating for 24-48 hr at 35°-37° C. Thereafter, 3-5 characteristic colonies were selected and transferred to CM-YNB+0.1% Dextrose Agar plates (1% Bactopeptone, 0.5% yeast extract, 6.7 g/L yeast nitrogen base with amino acids, 1 μM adenine, 0.1% dextrose, and 1.5% Bacto agar) and incubated overnight at 35°-37° C. From the regrowth, 3 to 5 colonies were selected and suspended in 5 ml of CM-YNBD media (same as above, only without agar) and incubated for 4-6 hr at 35°-37° C. shaking at 225 rpm. The broth cultures were adjusted spectrophotometrically to 86% transmission resulting in a concentration of 1-5×10^6 cfu/ml which was further diluted 1:100 (1:50 for Aspergillus) in CM-YNBD to obtain a concentration of 1-5 ×10^4 cfu/ml to use as inocula.
(§2) The test compounds were prepared as a stock solution of 512 μg/ml in 10% DMSO and 75 μl of said solution delivered to a well in column one of each 96 well, U-bottomed microtiter plate that already contained 75 μl of CM-YNBD media per well. In the first run of the assay, Compound I was then serially diluted two fold from column 1 to column 12 to yield concentrations from 256 μg/ml to 0,125 μg/ml.
(§3) Amphotericin B, the control compound, was prepared as a stock solution of 512 μg/ml in 10% DMSO and 75 μl of said solution delivered to a well in column one of each 96 well, U-bottomed microtiter plate that already contained 75 μl of CM-YNBD media per well. The compound was then serially diluted two fold from column 1 to column 12 to yield concentrations from 256 μg/ml to 0,125 μg/ml.
(§4) The plates containing the diluted compounds were then inoculated with 75 μl/well of the appropriate microorganism resulting in a further 2-fold dilution such that the final concentration of test compounds ranged between 128 and 0.06 μg/ml. The plates were incubated for 48 hours at 35°-37° C. with MIC (minimum inhibitory concentration) determinations carried out after 24 hours of incubation. Growth and sterility controls for each organism and sterility checks for the compounds also were carried out. In three cases, a modified MIC endpoint (MIC2) was used.
(§5) No MFC values are indicated for Aspergillus fumigatus since colony counts are unreliable with filamentous species. Instead, a Minimum Effective Concentration (MEC) is reported for A. fumigatus. The MEC is defined as the lowest concentration of drug which effects a severe morphological change in the cells. The MEC is scored […] by direct observation of the microtiter plate wells after 24 hours and reflects microscopic alterations in cell morphology (Kurtz et al. AAC:38:1480-1489[94]).
(§6) In this run, Compound I was titrated from 64-0.03 μg/ml and Compound II was titrated from 128-0.06 μg/ml.

[2] = tested on: Aspergillus fumigatus (MF5668); format: cell-based; conditions: for MIC: complete clearing
Description: as §1, §2, §3, §4, §5, §6

[3] = tested on: Candida pseudotroplicalis (MY2099); format: cell-based, Candida pseudotropicalis; conditions: for MIC: complete clearing
Description: as §1, §2, §3, §4
After recording MICs at 24 hours, samples are withdrawn to determine the MFC. The microtiter plates were shaken gently to resuspend the cells and […] sample was transferred from each well of the 96 well plate to the surface of a single reservoir inoculum plate containing 15 ml of SDA. The inoculated SDA and corresponding microtiter plates were incubated for 24 hours at 35°-37° C. For Cryptococcus neoformans, the MFC plates were inoculated after reading the 48 hour MICs and incubated for 48 hours before reading the MFC. […]

[4] = tested on: Candida tropicalis (MY1012); format: cell-based; conditions: for MIC: complete clearing
Description: as §1, §2, §3, §4
(§7) After recording MICs at 24 hours, samples are withdrawn to determine the MFC. The microtiter plates were shaken gently to resuspend the cells and […] sample was transferred from each well of the 96 well plate to the surface of a single reservoir inoculum plate containing 15 ml of SDA. The inoculated SDA and corresponding microtiter plates were incubated for 24 hours at 35°-37° C. For Cryptococcus neoformans, the MFC plates were inoculated after reading the 48 hour MICs and incubated for 48 hours before reading the MFC. The MFC is the lowest concentration of compound at which either no growth or growth of ≤3 colonies occurs.
as §6

[5] = tested on: Cryptococcus neoformans (MY2062); format: cell-based; conditions: complete clearing
Description: as §1, §2, §3, §4, §7, §6

[6] = tested on: Candida albicans (MY1055); format: cell-based
Description: as §1, §2, §3, §4, §7, §6

[7] = tested on: Candida parapsilosis (MY1010); format: cell-based; conditions: Lodderomyces parapsilosis
Description: as §1, §2, §3, §4, §7, §6

[8] = tested on: Saccharomyces cerevisiae (MY2141); format: cell-based; conditions: for MIC: complete clearing
Description: as §1, §2, §3, §4, §7, §6

[9] = tested on: Candida albicans (CLY539); format: cell-based; conditions: for MIC: * = MIC2, prominent decrease in turbidity
Description: as §1, §2, §3, §4, §7, §6

[10] = tested on: Candida glabrata (MY1381); format: cell-based; conditions: Nakaseomyces glabratus; for MIC: complete clearing
Description: as §1, §2, §3, §4, §7, §6

[11] = tested on: Saccharomyces cerevisiae (MY2140); format: cell-based; conditions: for MIC: complete clearing
Description: as §1, §2, §3, §4, §7, §6

Candida albicans (CA2) = format: cell-based; conditions: comparative run, I 64-0.03, II 128-0.06 μg/ml, complete clearing
Description: as §1, §2, §3, §4, §7, §6

[12] = tested on: Candida guillermondii (MY1019); format: cell-based; conditions: for MIC: complete clearing
Description: as §1, §2, §3, §4, §7, §6

[13] = tested on: Candida tropicalis (MY1124); format: cell-based
Description: as §1, §2, §3, §4, §7, §6

[14] = comparative run, I 64-0.03, II 128-0.06 μg/ml
[15] = comparative run, II 128-0.06 μg/ml, * = MIC2, prominent decrease in turbidity, read-out: MIC2
[16] = first run, 128-0.06 μg/ml, 24 h
[17] = first run, lowest concentration effecting severe morphological change, 24 h, read-out: MEC
[18] = first run, 128-0.06 μg/ml, no growth or ≤3 colonies
[19] = comparative run, I 64-0.03 μg/ml, complete clearing, read-out: MIC
[20] = first run, 128-0.06 μg/ml, 24 h, * = MIC2, prominent decrease in turbidity, read-out: MIC2

C=C(CCC(C)C1CCC2(C(=O)O)C3=C(CCC12C)C1(C)CCC(OC2OC(CO)C(O)C(O)C2O)C(=C)C1CC3)C(C)C (stereo not shown) [Compound II]
MIC [1, 14]: > 128 µg/mL
MIC [2, 14]: > 128 µg/mL
MIC [3, 14]: < 0.06 µg/mL
MIC [4, 14]: 8 µg/mL (≈ 13 µM)
MIC [5, 14]: > 128 µg/mL
MIC [6, 15]: 1 µg/mL (≈ 1.62 µM)
MIC [7, 15]: 2 µg/mL (≈ 3.24 µM)
MIC [8, 14]: < 0.06 µg/mL
MIC [9, 14]: > 128 µg/mL
MIC [10, 14]: 0.5 µg/mL (≈ 0.811 µM)
MIC [11, 14]: 1 µg/mL (≈ 1.62 µM)
MIC (Candida albicans (CA2)): > 128 µg/mL
MIC [12, 14]: > 128 µg/mL
MIC ([13]; comparative run, II 128-0.06 μg/ml, complete clearing, read-out: MIC): 0.5 µg/mL (≈ 0.811 µM)

C=C(CCC(C)C1CC(O)C2(C(=O)O)C3=C(CCC12C)C1(C)CCC(OC2OC(CO)C(OC)C(O)C2O)C(=C)C1CC3)C(C)C (stereo not shown) [Compound I]
MIC [1, 14]: > 64 µg/mL
MIC [1, 16]: > 128 µg/mL
minimal effective concentration [1, 17]: 0.25 µg/mL
MIC [2, 14]: > 64 µg/mL
MIC [2, 16]: > 128 µg/mL
minimal effective concentration [2, 17]: < 0.06 µg/mL
MIC [3, 14]: < 0.03 µg/mL
MIC [3, 16]: < 0.06 µg/mL
MFC [3, 18]: < 0.06 µg/mL
MIC [4, 14]: 8 µg/mL (≈ 12.4 µM)
MIC [4, 16]: 8 µg/mL (≈ 12.4 µM)
MFC [4, 18]: 8 µg/mL (≈ 12.4 µM)
MIC [5, 14]: > 64 µg/mL
MIC ([5]; first run, 128-0.06 μg/ml): 32 µg/mL (≈ 49.5 µM)
MIC [6, 19]: < 0.03 µg/mL
MIC [6, 20]: 2 µg/mL (≈ 3.09 µM)
MFC [6, 18]: < 0.06 µg/mL
MIC [7, 19]: < 0.03 µg/mL
MIC ([7]; first run, 128-0.06 μg/ml, 24 h, complete clearing, read-out: MIC): < 0.06 µg/mL
MFC [7, 18]: < 0.06 µg/mL
MIC [8, 14]: < 0.03 µg/mL
MIC [8, 16]: < 0.06 µg/mL
MFC [8, 18]: < 0.06 µg/mL
MIC [9, 14]: < 0.03 µg/mL
MIC [9, 16]: 0.5 µg/mL (≈ 0.773 µM)
MFC [9, 18]: > 128 µg/mL
MIC [10, 16]: < 0.06 µg/mL
MFC [10, 18]: < 0.06 µg/mL
MIC [11, 14]: 4 µg/mL (≈ 6.18 µM)
MIC [11, 16]: 8 µg/mL (≈ 12.4 µM)
MFC [11, 18]: 4 µg/mL (≈ 6.18 µM)
MIC (Candida albicans (CA2)): > 64 µg/mL
MIC [12, 14]: > 64 µg/mL
MIC [12, 16]: > 128 µg/mL
MFC [12, 18]: > 128 µg/mL
MIC ([13]; comparative run, I 64-0.03 μg/ml, * = MIC2, prominent decrease in turbidity, read-out: MIC2): < 0.03 µg/mL
MIC [13, 20]: 0.25 µg/mL (≈ 0.386 µM)
MFC [13, 18]: 0.125 µg/mL (≈ 0.193 µM)
